“Also recorded” adds a separate entry of the source.
What was measured:
Type in all cases: cell-based
[1] = tested on: Bacillus subtillis IFO 3009; assay: growth suppression/inhibition on agar media, colonies observed visually; conditions: agar medium pH 7.0, 37° C. one night; BHA 0.5%, BHT 0.5%, 1,5-D-anhydrofructose 1%
[2] = tested on: Lactobacillus casei ATCC 393; assay: as above
Method: (§1) Under the circumstances, influences on growth of a variety of bacteria in the presence of 1,5-D-anhydrofructose with or without sodium ascorbate which is a typical antioxidant to be used in food and beverages were examined.
(§2) After the bacterial strains were suspended in physiological salt solutions, they were inoculated into agar media (each containing 0.25% of yeast extract, 0.5% of polypeptone, […]) with platinum loops and then cultured at 37° C. until colonies were formed. Thereafter, the bacteria were inoculated, with sterilized toothpicks, from the colonies into agar media of the above composition each of which contained 1.0% of sodium ascorbate and 1.0% of 1,5-D-anhydrofructose, and into agar media of the above composition each of which contained 1.0% of 1,5-D-anhydrofructose and no sodium ascorbate. For controls, culture media of the same composition each of which contained neither sodium ascorbate nor 1,5-D-anhydrofructose and culture media of the same composition each of which contained 1.0% of sodium ascorbate and no 1,5-D-anhydrofructose were used. Abilities of sodium ascorbate and 1,5-D-anhydrofructose to suppress/inhibit growth of the bacteria were evaluated by visually observing the colonies formed after the bacteria were cultured at 37° C. for one night.
(§3) The substances were used at concentrations shown in the legend of Table 4.
(§4) Those cultured in the absence of the chelating agents, 1,5-D-anhydrofructose, sodium ascorbate and sodium erythorbate were taken as controls. As for an agar medium, a method for inoculating the bacteria, conditions for culturing the bacteria, and a method for evaluating a growth suppressing/inhibiting ability, they are the same as those used in the tests whose results are shown in Tables 2 and 3.

[3] = tested on: Bacillus cereus IFO 3131; assay: as above
Method: as §1, §2, §3, §4

[4] = tested on: Escherichia coli IFO 3301; assay: as above
Method: as §1, §2, §3, §4

[5] = tested on: Proteus vulgaris IFO 3851; assay: as above
Method: as §1, §2, §3, §4

[6] = tested on: gram-positive bacteria; assay: minimum growth inhibitory concentration / growth inhibition in agar media; conditions: for growth inhibitory effect against gram-positive bacteria: 0.5%, used independently, agar medium pH 7.0
Method: (§5) When a variety of bacteria are cultured in agar media in the presence of 1,5-D-anhydrofructose without any of an antioxidant or a chelating agent, a minimum growth inhibitory concentration of 1,5-D-anhydrofructose is 3.0 to 5.0% for gram-negative bacteria and 1.0 to 3.0% for gram-positive bacteria. Under the circumstances, influences on growth of a variety of bacteria in the presence of 1,5-D-anhydrofructose with or without sodium ascorbate which is a typical antioxidant to be used in food and beverages were examined.
as §2, §3

[7] = tested on: Pseudomonas aeruginosa IFO 12689; assay: growth suppression/inhibition on agar media, colonies observed visually; conditions: agar medium pH 7.0, 37° C. one night; BHA 0.5%, BHT 0.5%, 1,5-D-anhydrofructose 1%
[8] = tested on: Streptococcus eqinus ATCC 9812; assay: as above; conditions: agar medium pH 6.5, 37° C. one night
Text: as §1
(§6) After the bacterial strains were suspended in physiological salt solutions, they were inoculated into agar media (each containing 0.25% of yeast extract, 0.5% of polypeptone, 1.0% of glucose and 1.5% of soft agar and having a pH of 6.5) with platinum loops and then cultured at 37° C. until colonies were formed. Thereafter, the bacteria were inoculated, with sterilized toothpicks, from the colonies into agar media of the above composition each of which contained 1.0% of sodium ascorbate and 1.0% of 1,5-D-anhydrofructose, and into agar media of the above composition each of which contained 1.0% of 1,5-D-anhydrofructose and no sodium ascorbate. For controls, culture media of the same composition each of which contained neither sodium ascorbate nor 1,5-D-anhydrofructose and culture media of the same composition each of which contained 1.0% of sodium ascorbate and no 1,5-D-anhydrofructose were used. Abilities of sodium ascorbate and 1,5-D-anhydrofructose to suppress/inhibit growth of the bacteria were evaluated by visually observing the colonies formed after the bacteria were cultured at 37° C. for one night.
as §3, §4

[9] = tested on: Bacillus subtillis IFO 3009; assay: as above; conditions: agar medium pH 6.5, 37° C. one night
Text: as §1, §6, §3, §4

[10] = tested on: Pseudomonas aeruginosa IFO 12689; assay: as above; conditions: agar medium pH 6.5, 37° C. one night
Text: as §1, §6, §3, §4

[11] = tested on: Enterobactor cloacae JCM 1232; assay: as above; conditions: agar medium pH 6.5, 37° C. one night
Text: as §1, §6, §3, §4

[12] = tested on: Enterobactor cloacae JCM 1232; assay: as above; conditions: agar medium pH 7.0, 37° C. one night; BHA 0.5%, BHT 0.5%, 1,5-D-anhydrofructose 1%
[13] = tested on: Streptococcus eqinus ATCC 9812; assay: as above; conditions: agar medium pH 7.0, 37° C. one night; BHA 0.5%, BHT 0.5%, 1,5-D-anhydrofructose 1%
[14] = tested on: a variety of bacteria (strains of Table 1); assay: growth suppression on agar media, summary statements for all tested bacteria; conditions: for growth suppressing ability when solely used: solely used at the concentrations of the tests (sodium ascorbate 1.0%, sodium erythorbate 0.2%, chelating agents 0.2-0.5%); for effect of enhancing the growth suppressing effect of 1,5-D-anhydrofructose: co-presence with 1,5-D-anhydrofructose, no data shown
Method: as §5, §6, §4

[15] = agar medium pH 6.5, 37° C. one night, 1,5-D-anhydrofructose 1%, sodium citrate 0.5%, sodium polyphosphate 0.2%, sodium malate 0.5%, sodium gluconate 0.5%, sodium tartrate 0.5%, sodium ascorbate 1%, sodium erythorbate 0.2%
[16] = agar medium pH 6.5, 37° C. one night, sodium ascorbate 1%, 1,5-D-anhydrofructose 1%
[17] = agar medium pH 6.5, 37° C. one night, sodium erythorbate 0.2%, 1,5-D-anhydrofructose 1%
[18] = agar medium pH 7.0, 37° C. one night, BHA 0.5%, BHT 0.5%, 1,5-D-anhydrofructose 1%
[19] = 1,5-D-anhydrofructose 1%, sodium citrate 0.5%, sodium polyphosphate 0.2%, sodium malate 0.5%, sodium gluconate 0.5%, sodium tartrate 0.5%, sodium ascorbate 1%, sodium erythorbate 0.2%
[20] = sodium ascorbate 1%, 1,5-D-anhydrofructose 1%
[21] = sodium erythorbate 0.2%, 1,5-D-anhydrofructose 1%

## O=C1CO[C@H](CO)[C@@H](O)[C@@H]1O [1,5-D-anhydrofructose]
[1]
  condition of the colonies: +
[2]; [15]
  condition of the colonies: ±
[2]; [16]
  condition of the colonies: ±
[2]; [17]
  condition of the colonies: ±
[2]; [18]
  condition of the colonies: ±
[3]; [15]
  condition of the colonies: ±
[3]; [16]
  condition of the colonies: ±
[3]; [17]
  condition of the colonies: ±
[3]; [18]
  condition of the colonies: ±
[4]; [15]
  condition of the colonies: +
[4]; [16]
  condition of the colonies: +
[4]; [17]
  condition of the colonies: +
[4]; [18]
  condition of the colonies: +
[5]; [15]
  condition of the colonies: ±
[5]; [16]
  condition of the colonies: ±
[5]; [17]
  condition of the colonies: ±
[5]; [18]
  condition of the colonies: ±
[6]; agar media, without any antioxidant or chelating agent
  minimum growth inhibitory concentration: 1.0 to 3.0%
[7]
  condition of the colonies: +
[8]; [19]
  condition of the colonies: ±
[8]; [20]
  condition of the colonies: ±
[8]; [21]
  condition of the colonies: ±
[9]; [19]
  condition of the colonies: +
[9]; [20]
  condition of the colonies: +
[9]; [21]
  condition of the colonies: +
[10]; [19]
  condition of the colonies: +
[10]; [20]
  condition of the colonies: +
[10]; [21]
  condition of the colonies: +
[11]; [19]
  condition of the colonies: +
[11]; [20]
  condition of the colonies: +
[11]; [21]
  condition of the colonies: +
[12]
  condition of the colonies: +
[13]
  condition of the colonies: ±

## COc1ccc(O)c(C(C)(C)C)c1 [BHA, butylhydroxyanisol]
[1]
  condition of the colonies: −
[2]; [18]
  condition of the colonies: −
[3]; [18]
  condition of the colonies: −
[4]; [18]
  condition of the colonies: −
[5]; [18]
  condition of the colonies: −
[6]
  growth inhibitory effect against gram-positive bacteria: exhibited a growth inhibitory effect against all of the examined gram-positive bacteria
[7]
  condition of the colonies: +
[12]
  condition of the colonies: ±
[13]
  condition of the colonies: −

## Cc1cc(C(C)(C)C)c(O)c(C(C)(C)C)c1 [BHT, dibutylhydroxytoluene]
[1]
  condition of the colonies: −
[2]; [18]
  condition of the colonies: −
[3]; [18]
  condition of the colonies: −
[4]; [18]
  condition of the colonies: +
[5]; [18]
  condition of the colonies: ±
[6]
  growth inhibitory effect against gram-positive bacteria: exhibited a growth inhibitory effect against all of the examined gram-positive bacteria
[7]
  condition of the colonies: +
[12]
  condition of the colonies: +
[13]
  condition of the colonies: −

## O=C1O[C@H]([C@@H](O)CO)C([O-])=C1O.[Na+] [sodium ascorbate]
[2]; [15]
  condition of the colonies: +
[2]; [16]
  condition of the colonies: +
[3]; [15]
  condition of the colonies: +
[3]; [16]
  condition of the colonies: +
[4]; [15]
  condition of the colonies: +
[4]; [16]
  condition of the colonies: +
[5]; [15]
  condition of the colonies: +
[5]; [16]
  condition of the colonies: +
[14]
  growth suppressing ability when solely used: does not have a growth suppressing ability against any of the bacteria; also recorded: do not inhibit growth of the bacteria
[8]; [19]
  condition of the colonies: +
[8]; [20]
  condition of the colonies: +
[9]; [19]
  condition of the colonies: +
[9]; [20]
  condition of the colonies: +
[10]; [19]
  condition of the colonies: +
[10]; [20]
  condition of the colonies: +
[11]; [19]
  condition of the colonies: +
[11]; [20]
  condition of the colonies: +

## O=C([O-])CC(O)(CC(=O)[O-])C(=O)[O-].[Na+].[Na+].[Na+] [sodium citrate]
[2]; [15]
  condition of the colonies: +
[3]; [15]
  condition of the colonies: +
[4]; [15]
  condition of the colonies: +
[5]; [15]
  condition of the colonies: +
[8]; [19]
  condition of the colonies: +
[9]; [19]
  condition of the colonies: +
[10]; [19]
  condition of the colonies: +
[11]; [19]
  condition of the colonies: +

## O=C1O[C@H]([C@H](O)CO)C([O-])=C1O.[Na+] [sodium erythorbate]
[2]; [15]
  condition of the colonies: +
[2]; [17]
  condition of the colonies: +
[3]; [15]
  condition of the colonies: +
[3]; [17]
  condition of the colonies: +
[4]; [15]
  condition of the colonies: +
[4]; [17]
  condition of the colonies: +
[5]; [15]
  condition of the colonies: +
[5]; [17]
  condition of the colonies: +
[14]
  growth suppressing ability when solely used: do not inhibit growth of the bacteria
[8]; [19]
  condition of the colonies: +
[8]; [21]
  condition of the colonies: +
[9]; [19]
  condition of the colonies: +
[9]; [21]
  condition of the colonies: +
[10]; [19]
  condition of the colonies: +
[10]; [21]
  condition of the colonies: +
[11]; [19]
  condition of the colonies: +
[11]; [21]
  condition of the colonies: +

## O=C([O-])[C@H](O)[C@@H](O)[C@H](O)[C@H](O)CO.[Na+] [sodium gluconate]
[2]; [15]
  condition of the colonies: +
[3]; [15]
  condition of the colonies: +
[4]; [15]
  condition of the colonies: +
[5]; [15]
  condition of the colonies: +
[8]; [19]
  condition of the colonies: +
[9]; [19]
  condition of the colonies: +
[10]; [19]
  condition of the colonies: +
[11]; [19]
  condition of the colonies: +

## O=C([O-])CC(O)C(=O)[O-].[Na+].[Na+] (stereo not shown) [sodium malate]
[2]; [15]
  condition of the colonies: +
[3]; [15]
  condition of the colonies: +
[4]; [15]
  condition of the colonies: +
[5]; [15]
  condition of the colonies: +
[8]; [19]
  condition of the colonies: +
[9]; [19]
  condition of the colonies: +
[10]; [19]
  condition of the colonies: +
[11]; [19]
  condition of the colonies: +

## O=C([O-])C(O)C(O)C(=O)[O-].[Na+].[Na+] (stereo not shown) [sodium tartrate]
[2]; [15]
  condition of the colonies: +
[3]; [15]
  condition of the colonies: +
[4]; [15]
  condition of the colonies: +
[5]; [15]
  condition of the colonies: +
[8]; [19]
  condition of the colonies: +
[9]; [19]
  condition of the colonies: +
[10]; [19]
  condition of the colonies: +
[11]; [19]
  condition of the colonies: +

## catechin
[14]
  effect of enhancing the growth suppressing effect of 1,5-D-anhydrofructose: exhibit the above effect

## sodium polyphosphate
[2]; [15]
  condition of the colonies: +
[3]; [15]
  condition of the colonies: +
[4]; [15]
  condition of the colonies: +
[5]; [15]
  condition of the colonies: +
[8]; [19]
  condition of the colonies: +
[9]; [19]
  condition of the colonies: +
[10]; [19]
  condition of the colonies: +
[11]; [19]
  condition of the colonies: +

## tocopherol
[14]
  effect of enhancing the growth suppressing effect of 1,5-D-anhydrofructose: exhibit the above effect

Source: patent US20030161862A1, “Bacterial growth regulators or inhibitors with the use of 1,5-d-anhydrofructose” (priority 2000, published 2003)
